Calls of active or inactive are those of the source.
What was measured:
[1] = molecular target: FAD-linked sulfhydryl oxidase ALR (Homo sapiens, UniProt P55789); assay: inhibitors of human ALR sulfhydryl oxidase, dose response, biochemical, H2O2 detection, luminescence, cherry-pick (AID 493248)
Escherichia coli = assay: microbe, parasite or virus in culture
[2] = molecular target: T1, Endoribonuclease toxin MazF (Escherichia coli K-12, UniProt P0AE70); assay: MazF toxin RNase activators, dose response, biochemical, fluorescence, single-stranded RNA substrate, uHTS hits (AID 588481); type: functional
T1 sequence (P0AE70 whole entry): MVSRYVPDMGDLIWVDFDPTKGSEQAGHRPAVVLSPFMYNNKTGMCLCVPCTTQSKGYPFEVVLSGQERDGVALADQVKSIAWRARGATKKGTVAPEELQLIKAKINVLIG

[3] = molecular target: T1, Endoribonuclease toxin MazF; assay: fluorescent RNA oligo signal without MazF, dose response, counter-screen for MazEF activator project, biochemical, fluorescence, single-stranded RNase substrate (AID 588502); type: functional
[4] = molecular target: T2, RNA-binding protein pos-1 (Caenorhabditis elegans, UniProt G5EF15); assay: inhibitors of POS-1/mex-3 RNA binding, dose response, biochemical, fluorescence polarization (AID 1964);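 further: purified POS-1 fused to maltose binding protein made in E. coli; potency of compounds blocking POS-1 binding to fluorescent RNA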
T2 sequence (G5EF15 whole entry): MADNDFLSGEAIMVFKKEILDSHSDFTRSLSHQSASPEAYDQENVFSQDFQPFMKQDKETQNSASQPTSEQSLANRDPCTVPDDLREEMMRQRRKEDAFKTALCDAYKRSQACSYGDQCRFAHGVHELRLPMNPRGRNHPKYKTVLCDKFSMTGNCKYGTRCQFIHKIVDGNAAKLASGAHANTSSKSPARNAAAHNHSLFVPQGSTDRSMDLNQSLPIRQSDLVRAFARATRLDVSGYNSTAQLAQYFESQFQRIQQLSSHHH

[5] = molecular target: T3, Zinc finger protein mex-5 (Caenorhabditis elegans, UniProt Q9XUB2); assay: MEX-5/TCR-2 RNA interaction inhibitors, dose response, biochemical, C. elegans, fluorescence polarization (AID 1960)
T3 sequence (Q9XUB2 whole entry): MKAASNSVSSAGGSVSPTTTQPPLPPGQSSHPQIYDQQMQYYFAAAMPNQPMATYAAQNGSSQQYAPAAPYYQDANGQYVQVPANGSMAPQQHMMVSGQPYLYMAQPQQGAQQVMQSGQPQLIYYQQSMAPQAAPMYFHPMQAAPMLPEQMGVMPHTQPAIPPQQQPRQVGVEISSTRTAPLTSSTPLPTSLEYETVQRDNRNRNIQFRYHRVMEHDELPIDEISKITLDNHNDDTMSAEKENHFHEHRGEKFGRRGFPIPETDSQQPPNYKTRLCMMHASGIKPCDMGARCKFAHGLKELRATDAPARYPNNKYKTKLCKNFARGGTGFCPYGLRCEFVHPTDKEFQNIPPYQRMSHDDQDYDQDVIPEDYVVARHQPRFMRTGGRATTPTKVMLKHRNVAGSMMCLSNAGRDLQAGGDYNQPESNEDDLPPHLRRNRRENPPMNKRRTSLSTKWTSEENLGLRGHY

CHO = assay: cytotoxicity in TLR9-MyD88 CHO cells, dose response, cytotoxicity control for TLR9-MyD88 binding inhibitor project, cell-based, luminescence (AID 588339); type: functional, hamster; conditions: Cricetulus griseus;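 further: CHO cells stably coexpressing TLR9 and MyD88 fusions from primary screen; compound exposure lasted 48 hours before viability readout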
Beta Lactamase = Beta Lactamase (Pseudomonas aeruginosa, UniProt Q932Y6); assay: beta-lactamase reporter inhibitor potency, dose response, artefact control for TLR9-MyD88 binding inhibitor project, BLA reporter cells, FRET fluorescence (AID 588341); type: cell-based;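 further: cell based assay in CHO-K1 cells stably expressing beta-lactamase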
[6] = molecular target: T4, Corticotropin-releasing factor receptor 2/Corticotropin-releasing factor-binding protein (Homo sapiens, UniProt P24387+Q13324); assay: activators of CRF receptor 2 with binding protein – uHTS hits, confirmation (AID 602473); type: functional; conditions: read-out: EC50_Mean
T4 sequence (Q13324 whole entry): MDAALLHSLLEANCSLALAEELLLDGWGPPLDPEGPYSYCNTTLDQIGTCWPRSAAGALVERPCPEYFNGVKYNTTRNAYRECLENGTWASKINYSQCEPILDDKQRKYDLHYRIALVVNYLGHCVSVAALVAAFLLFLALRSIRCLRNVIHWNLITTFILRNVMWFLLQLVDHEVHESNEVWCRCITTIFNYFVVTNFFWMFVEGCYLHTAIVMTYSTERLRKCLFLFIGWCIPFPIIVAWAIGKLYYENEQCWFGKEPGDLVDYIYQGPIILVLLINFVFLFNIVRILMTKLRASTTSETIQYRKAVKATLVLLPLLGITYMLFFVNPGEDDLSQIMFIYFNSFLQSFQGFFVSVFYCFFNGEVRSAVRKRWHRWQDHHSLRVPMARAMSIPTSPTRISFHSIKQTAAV
T4 sequence (P24387 whole entry): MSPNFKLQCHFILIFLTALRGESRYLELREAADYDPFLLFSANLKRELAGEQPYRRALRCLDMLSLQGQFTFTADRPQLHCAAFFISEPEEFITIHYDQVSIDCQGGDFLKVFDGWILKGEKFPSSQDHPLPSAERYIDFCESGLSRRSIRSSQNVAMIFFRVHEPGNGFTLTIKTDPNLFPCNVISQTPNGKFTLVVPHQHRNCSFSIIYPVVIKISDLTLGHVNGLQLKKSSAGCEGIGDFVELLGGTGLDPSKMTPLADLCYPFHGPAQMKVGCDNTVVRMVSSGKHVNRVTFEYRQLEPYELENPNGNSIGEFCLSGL

Interleukin-8 [7] = molecular target: T5, Interleukin-8 (Homo sapiens, UniProt P10145); assay: Dose Response confirmation of uHTS small molecule hits for cystic fibrosis induced NFkb Inhibitors in a TNFa-induced IL8 counterscreen.; type: functional; conditions: read-out: IC50_Mean
T5 sequence (P10145 whole entry): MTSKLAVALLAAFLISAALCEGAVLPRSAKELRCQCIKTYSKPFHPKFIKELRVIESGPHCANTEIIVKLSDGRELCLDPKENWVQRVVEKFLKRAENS

Interleukin-8 [8] = molecular target: T5, Interleukin-8; assay: Dose Response confirmation of uHTS small molecule hits for cystic fibrosis induced NFkb Inhibitors in a PAF-induced IL8 counterscreen.; type: functional; conditions: read-out: IC50_Mean
[9] = molecular target: Voltage-gated inwardly rectifying potassium channel KCNH2 (Homo sapiens, UniProt Q12809); conditions: Potency;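 further: confirmatory quantitative high-throughput screen measuring inhibition of hERG channel activity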
[10] = molecular target: T6, Apoptotic protease-activating factor 1 (Homo sapiens, UniProt O14727); assay: SAR analysis of small molecule inhibitors of Apaf-1 in a Fluorescent assay.; type: functional; conditions: read-out: IC50_Mean
T6 sequence (O14727 whole entry): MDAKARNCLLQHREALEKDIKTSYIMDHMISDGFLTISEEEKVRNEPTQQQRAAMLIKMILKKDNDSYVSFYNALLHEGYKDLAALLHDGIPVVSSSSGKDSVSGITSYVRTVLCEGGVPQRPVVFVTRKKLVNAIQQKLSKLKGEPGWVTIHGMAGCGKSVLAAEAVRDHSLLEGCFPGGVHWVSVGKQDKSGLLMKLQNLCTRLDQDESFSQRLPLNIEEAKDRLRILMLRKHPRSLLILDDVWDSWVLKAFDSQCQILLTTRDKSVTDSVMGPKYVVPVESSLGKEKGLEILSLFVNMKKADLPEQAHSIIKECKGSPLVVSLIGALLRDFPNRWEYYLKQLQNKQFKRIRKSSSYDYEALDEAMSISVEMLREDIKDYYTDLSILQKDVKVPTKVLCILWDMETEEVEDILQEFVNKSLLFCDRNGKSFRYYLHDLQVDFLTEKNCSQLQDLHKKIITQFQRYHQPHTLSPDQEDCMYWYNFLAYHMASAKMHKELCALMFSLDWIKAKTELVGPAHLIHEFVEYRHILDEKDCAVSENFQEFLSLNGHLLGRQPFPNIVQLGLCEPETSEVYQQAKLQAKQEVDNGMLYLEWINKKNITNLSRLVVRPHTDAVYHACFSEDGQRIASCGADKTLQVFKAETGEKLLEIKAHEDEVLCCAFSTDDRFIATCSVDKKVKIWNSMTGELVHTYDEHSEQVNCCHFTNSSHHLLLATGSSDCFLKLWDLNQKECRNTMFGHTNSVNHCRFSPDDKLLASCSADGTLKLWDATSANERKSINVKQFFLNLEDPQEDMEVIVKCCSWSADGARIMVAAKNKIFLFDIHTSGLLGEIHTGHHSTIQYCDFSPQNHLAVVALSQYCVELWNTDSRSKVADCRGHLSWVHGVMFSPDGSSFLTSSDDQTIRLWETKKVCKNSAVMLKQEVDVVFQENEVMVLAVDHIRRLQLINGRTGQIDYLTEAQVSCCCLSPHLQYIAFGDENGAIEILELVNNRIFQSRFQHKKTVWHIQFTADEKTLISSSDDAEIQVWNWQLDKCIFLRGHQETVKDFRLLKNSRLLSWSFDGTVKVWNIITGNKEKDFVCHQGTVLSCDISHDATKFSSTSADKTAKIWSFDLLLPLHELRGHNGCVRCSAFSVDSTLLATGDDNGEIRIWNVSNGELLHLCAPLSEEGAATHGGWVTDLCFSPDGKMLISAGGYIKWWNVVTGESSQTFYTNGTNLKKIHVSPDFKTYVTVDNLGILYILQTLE

[11] = system: Streptococcus sp. 'group A'; assay: growth inhibition of control SK(-) GAS strain, dose response, counter-screen for streptokinase expression inhibitor project, luminescence, kanamycin, BacTiterGlo, confirmation (AID 1900); type: functional, organism-based
Streptokinase A = molecular target: T7, Streptokinase A (Streptococcus pyogenes serotype M1, UniProt P10520); assay: S. pyogenes streptokinase expression inhibitors, potency, dose response, plasminogen activation absorbance, OD405 (AID 1914); type: functional, Streptococcus pyogenes M1 GAS;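 further: secreted streptokinase activity via plasminogen activation per viability signal from cell pellet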
T7 sequence (P10520 whole entry): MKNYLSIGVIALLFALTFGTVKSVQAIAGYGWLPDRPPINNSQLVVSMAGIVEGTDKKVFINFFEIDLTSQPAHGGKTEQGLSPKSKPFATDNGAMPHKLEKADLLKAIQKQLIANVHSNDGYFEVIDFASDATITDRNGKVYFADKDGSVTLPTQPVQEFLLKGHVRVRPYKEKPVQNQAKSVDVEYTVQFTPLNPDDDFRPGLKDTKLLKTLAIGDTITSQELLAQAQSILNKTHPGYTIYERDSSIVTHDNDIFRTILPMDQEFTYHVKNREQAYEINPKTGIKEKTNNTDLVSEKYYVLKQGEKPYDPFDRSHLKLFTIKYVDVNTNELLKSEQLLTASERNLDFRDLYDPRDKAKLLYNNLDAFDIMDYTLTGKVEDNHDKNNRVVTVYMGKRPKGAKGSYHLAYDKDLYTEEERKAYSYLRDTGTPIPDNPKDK

Streptococcus = assay: Group A Streptococcus viability loss, dose response, counter-screen for streptokinase expression inhibitor project, luminescence, BacTiterGlo (AID 1915); type: functional, organism-based;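 further: potency for reduction of bacterial viability or growth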
[12] = molecular target: T8, Low molecular weight phosphotyrosine protein phosphatase (Homo sapiens, UniProt P24666); type: functional; conditions: read-out: IC50_Mean;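 further: Dose-response confirmation assay measuring inhibition of LMPTP enzyme activity by fluorescence intensity read-out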
T8 sequence (P24666 whole entry): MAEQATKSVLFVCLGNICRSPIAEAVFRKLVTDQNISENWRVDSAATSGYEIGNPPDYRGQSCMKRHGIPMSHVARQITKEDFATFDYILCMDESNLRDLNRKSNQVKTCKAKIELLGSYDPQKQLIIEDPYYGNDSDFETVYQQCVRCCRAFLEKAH

[13] = molecular target: T6, Apoptotic protease-activating factor 1; assay: SAR analysis of small molecule Activators of Apaf-1 in a Fluorescent assay.; type: functional; conditions: read-out: EC50_Mean
Vero = assay: cells; type: functional; conditions: Chlorocebus sabaeus
[14] = molecular target: T9, Probable nicotinate-nucleotide adenylyltransferase (Staphylococcus aureus (strain N315), UniProt P65502); type: functional, Staphylococcus aureus subsp. aureus N315;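 on IC50 Mean: confirmatory dose-response retesting of NadD inhibitor hits first found in an ultra-high-throughput screen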
[15] = molecular target: T9, Probable nicotinate-nucleotide adenylyltransferase; type: functional, Staphylococcus aureus subsp. aureus N315; conditions: read-out: IC50_Mean
[16] = intracellular Trypanosoma cruzi inhibitors in host cells – cell-based, plate reader, cherry-pick samples, set 3, dose response (AID 651818); type: functional;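 further: compounds incubated with infected cells for about four days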
[17] = molecular target: Hepatocyte nuclear factor 4-alpha (Homo sapiens, UniProt P41235); type: functional, cell-based;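 further: biochemical luminescence-based dose-response counterscreen measuring inhibition of HNF4 dimerization, run alongside a screen for blockers of ABHD5–perilipin-5 interaction; split luciferase complementation of HNF4 fusion proteins in cell lysate measuring dimerization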
CAAX prenyl protease 2 = CAAX prenyl protease 2 (Homo sapiens, UniProt Q9Y256); assay: human Rce1 protease inhibitors, dose response, biochemical, yeast membranes, quenched-peptide fluorescence, cherry-pick (AID 588849)
Chain of CAAX prenyl protease 2 (Q9Y256 whole entry): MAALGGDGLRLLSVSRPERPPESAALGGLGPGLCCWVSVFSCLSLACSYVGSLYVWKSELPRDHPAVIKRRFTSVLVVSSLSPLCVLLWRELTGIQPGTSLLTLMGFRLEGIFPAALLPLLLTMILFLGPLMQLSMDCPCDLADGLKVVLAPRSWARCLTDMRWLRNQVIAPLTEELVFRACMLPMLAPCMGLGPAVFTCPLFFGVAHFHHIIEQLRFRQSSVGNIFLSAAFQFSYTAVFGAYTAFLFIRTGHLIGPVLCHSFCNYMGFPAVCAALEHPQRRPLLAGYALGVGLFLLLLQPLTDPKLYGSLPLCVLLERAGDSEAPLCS

T9 sequence (P65502 whole entry): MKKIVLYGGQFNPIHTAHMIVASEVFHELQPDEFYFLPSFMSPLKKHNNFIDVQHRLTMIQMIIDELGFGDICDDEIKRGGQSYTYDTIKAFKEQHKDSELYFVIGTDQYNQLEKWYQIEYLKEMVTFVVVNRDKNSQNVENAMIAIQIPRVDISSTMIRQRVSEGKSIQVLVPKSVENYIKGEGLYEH
Chain of Voltage-gated inwardly rectifying potassium channel KCNH2 (Q12809 whole entry): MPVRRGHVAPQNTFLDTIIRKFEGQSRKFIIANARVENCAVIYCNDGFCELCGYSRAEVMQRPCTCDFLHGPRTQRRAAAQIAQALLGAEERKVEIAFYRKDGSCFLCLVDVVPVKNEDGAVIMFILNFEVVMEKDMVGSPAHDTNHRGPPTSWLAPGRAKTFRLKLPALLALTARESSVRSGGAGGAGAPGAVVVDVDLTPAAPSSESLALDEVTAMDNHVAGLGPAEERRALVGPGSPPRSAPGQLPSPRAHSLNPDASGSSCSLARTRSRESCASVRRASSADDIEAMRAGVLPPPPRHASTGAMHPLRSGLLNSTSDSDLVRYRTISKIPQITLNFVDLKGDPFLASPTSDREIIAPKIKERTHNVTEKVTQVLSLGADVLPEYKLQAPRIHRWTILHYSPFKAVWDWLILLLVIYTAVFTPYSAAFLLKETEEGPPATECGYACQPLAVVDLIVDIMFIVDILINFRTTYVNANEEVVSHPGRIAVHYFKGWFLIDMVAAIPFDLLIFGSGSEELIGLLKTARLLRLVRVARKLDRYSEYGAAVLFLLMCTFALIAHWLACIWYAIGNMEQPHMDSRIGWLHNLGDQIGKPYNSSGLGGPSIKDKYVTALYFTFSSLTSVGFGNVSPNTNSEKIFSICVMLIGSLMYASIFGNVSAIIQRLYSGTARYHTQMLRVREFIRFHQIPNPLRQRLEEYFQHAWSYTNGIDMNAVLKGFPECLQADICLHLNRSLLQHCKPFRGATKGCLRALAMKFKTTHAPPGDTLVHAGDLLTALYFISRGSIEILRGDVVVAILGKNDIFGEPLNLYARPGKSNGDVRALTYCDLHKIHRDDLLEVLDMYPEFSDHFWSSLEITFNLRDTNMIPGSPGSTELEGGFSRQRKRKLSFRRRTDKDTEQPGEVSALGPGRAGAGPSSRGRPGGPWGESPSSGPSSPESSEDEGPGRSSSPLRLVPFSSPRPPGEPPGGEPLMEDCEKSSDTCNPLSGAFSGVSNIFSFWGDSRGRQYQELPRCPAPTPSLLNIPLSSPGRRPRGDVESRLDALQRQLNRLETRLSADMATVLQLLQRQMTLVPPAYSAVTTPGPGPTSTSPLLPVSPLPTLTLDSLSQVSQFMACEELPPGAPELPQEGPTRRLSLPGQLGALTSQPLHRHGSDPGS
Chain of Beta Lactamase (Q932Y6 whole entry): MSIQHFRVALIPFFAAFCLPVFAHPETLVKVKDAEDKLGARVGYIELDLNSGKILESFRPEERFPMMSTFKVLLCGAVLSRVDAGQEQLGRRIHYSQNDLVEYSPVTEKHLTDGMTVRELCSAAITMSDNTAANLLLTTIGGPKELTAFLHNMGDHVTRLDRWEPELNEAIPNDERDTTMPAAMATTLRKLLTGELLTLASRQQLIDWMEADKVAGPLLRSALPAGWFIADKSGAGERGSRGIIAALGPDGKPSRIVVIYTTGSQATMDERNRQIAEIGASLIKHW
Chain of FAD-linked sulfhydryl oxidase ALR (P55789 whole entry): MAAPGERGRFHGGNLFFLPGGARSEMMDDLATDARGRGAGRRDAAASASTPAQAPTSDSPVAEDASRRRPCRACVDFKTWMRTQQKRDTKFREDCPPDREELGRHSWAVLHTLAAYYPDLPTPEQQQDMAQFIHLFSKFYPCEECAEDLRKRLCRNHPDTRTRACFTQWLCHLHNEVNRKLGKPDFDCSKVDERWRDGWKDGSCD
Chain of Hepatocyte nuclear factor 4-alpha (P41235 whole entry, the tested form may be a part): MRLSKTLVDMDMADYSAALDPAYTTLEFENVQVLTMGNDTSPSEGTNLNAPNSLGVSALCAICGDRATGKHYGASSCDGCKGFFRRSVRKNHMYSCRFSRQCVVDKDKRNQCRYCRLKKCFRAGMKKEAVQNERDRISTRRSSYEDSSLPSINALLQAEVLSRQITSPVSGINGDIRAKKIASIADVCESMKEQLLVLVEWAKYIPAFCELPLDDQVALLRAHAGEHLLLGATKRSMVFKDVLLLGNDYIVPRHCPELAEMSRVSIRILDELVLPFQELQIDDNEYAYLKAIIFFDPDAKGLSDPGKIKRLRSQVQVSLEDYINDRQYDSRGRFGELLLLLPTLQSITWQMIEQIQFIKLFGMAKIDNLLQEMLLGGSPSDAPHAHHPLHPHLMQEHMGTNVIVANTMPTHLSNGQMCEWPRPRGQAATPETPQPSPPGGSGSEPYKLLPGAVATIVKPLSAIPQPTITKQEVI

Cc1ccc(SCc2noc(C(=O)NC(C)C)c2C(=O)O)cc1C
AC50 [1]: 4.26 µM (active)
AC50 (Escherichia coli): 65.6 µM (active)

Cc1cccc(N=Nc2c(O)[nH]c3ccc(F)cc23)c1
EC50 [2]: 38.7 µM (inactive)
EC50 [3]: > 99 µM (inactive)

COc1ccc(C(=O)c2sc3nc(C)cc(-c4cccs4)c3c2N)cc1
EC50 [4]: 16.9 µM (active)
EC50 [5]: 11 µM (active)
IC50 (CHO): > 49.7 µM (inactive)
IC50 (Beta Lactamase): 3.85 µM (active)
EC50 [6]: 6.58 µM (active)

O=C(Nc1ccc(N2CCN(C(=O)c3ccccc3F)CC2)cc1)c1cncc(Br)c1
IC50 (Interleukin-8 [7]): > 79 µM (inactive)
IC50 (Interleukin-8 [8]): 6.77 µM (active)

CC(C=O)Cc1ccc(C(C)(C)C)cc1 (stereo unspecified)
AC50 [9]: 50.1 µM (inconclusive)

O=C(Nc1ccc2nc(-c3ccc(Br)o3)[nH]c2c1)c1cccs1
IC50 [10]: > 100 µM (inactive)

CC(C)(C)c1ccc(OCC(O)CS(=O)(=O)c2ccccn2)cc1 (stereo unspecified)
EC50 [11]: > 150 µM (not active)
EC50 (Streptokinase A): > 150 µM (not active)
EC50 (Streptococcus): > 150 µM (not active)
AC50 (Escherichia coli): 23.7 µM (active)

CCn1cc(C(=O)O)c(=O)c2cc(F)c(N3CCN(C(=S)NC(=O)c4c(OC)cccc4OC)CC3)cc21
IC50 [12]: 14 µM (active)

CN(N=Cc1ccc([N+](=O)[O-])cc1)c1ccccn1
EC50 [2]: 51.8 µM (inactive)
EC50 [3]: 37.8 µM (inactive)

O=C(O)[C@@H]1COC(c2ccc(F)cc2F)=N1
EC50 [13]: > 100 µM (inactive)

COc1cc(/C=C/c2ccc3c(Br)cc(Br)c(O)c3n2)ccc1O
IC50 (CHO): 7.79 µM (active)
IC50 (Beta Lactamase): 7.68 µM (active)
CC50 (Vero): 13.4 µM (active)
IC50 [14]: 10.1 µM (active)
IC50 [15]: 44.9 µM (active)

C[C@@H]1CN([C@@H](C)CO)C(=O)Cc2cc(NS(=O)(=O)c3ccc(Cl)cc3)ccc2O[C@@H]1CN(C)Cc1ccc(Cl)c(Cl)c1
AC50 [16]: 5.1 µM (active)

O=C(NC1CCCCC1)C(c1ccccc1)n1c(=O)c(-c2ccco2)nc2ccccc21 (stereo unspecified)
IC50 [17]: 0.817 µM (active)

O=C1c2cc(Cl)ccc2-n2c1nc1ccccc1c2=O
IC50 [10]: 60.3 µM (active)

CCN(CC)c1ccc(/C=N/NC(=O)C(O)(c2ccccc2)c2ccccc2)o1
AC50 (CAAX prenyl protease 2): > 100 µM (inactive)

NC(Cc1ccc(N(CCCl)CCCl)cc1)C(=O)O (stereo unspecified) [SARCOLYSIN]
AC50 [9]: 35.5 µM (inconclusive)
